Entries after “also recorded” stand apart in the source; their conditions may differ.
What was measured:
C2C12 myoblasts [1] = test: Intracellular calcium in C2C12 myoblasts (Calcium Green-1; flow cytometry or plate reading); type: cell-based, mouse
Protocol: In preparation for measurement of changes in intracellular calcium in response to PEMF treatment with flow cytometry myoblasts (50,000 cells) were spun down (1000 RCF; 5 minutes), resuspended in 2 ml of PBS and next loaded with 20 μl Calcium Green-1, AM (50 μg in 100 μl DMSO; Molecular Probes) for 30 minutes at 37 C in the dark. Following incubation, cells were washed once, resuspended into 500 μl PBS and placed on ice before registry in a BD FACSAria Flow Cytometer (FL1 channel). For plate reading assessment of intracellular calcium, myoblasts were plated into 96 black well plates (Brand 96 Flat Bottom Black) at 10,000 cells/wells. Cultures were washed once with PBS and supplied with 250 μl growth media to which Calcium Green-1 AM (50 μg in 100 μl DMSO; Molecular Probes) had been added at a dilution of 1:1000. Myoblasts cultures were then incubated in a standard tissue culture incubator for 5 minutes, followed by PEMF exposure for 10 minutes and then replaced in the incubator for an additional 15 minutes at 37° C. before washing with 37° C. PBS. Calcium measurement was conducted using a Tecan Infinite 200Pro plate reader with excitation wavelength and emission wavelengths set to 500 nm and 535 nm, respectively, and bandwidth excitation and emission wavelengths set to 9 and 20 nm, respectively.
(§1) Each pulse train consists of 20×150 μsec asymmetric pulses separated by 150 μsec interpulse intervals to the 0 flux level. The magnetic flux density rose to maximal level within 20-50 μsec and dropped equally as rapidly (50 T/s).

C2C12 myoblasts [2] = test: PEMF-induced proliferation of C2C12 myoblasts; conditions: 100 μM; 1 mT PEMFs within 18 hours after plating
C2C12 myoblasts [3] = test: Cell cycle (G2/M accumulation) of myoblasts in simulated microgravity; type: cell-based, mouse; conditions: 5 mM added transiently 10 minutes before simulated microgravity; at 2 hours
Protocol: The RPM was kept in a temperature-controlled room at 37° C. The calculated gravity exerted upon cells on the RPM was below 0.02 g. Cells were seeded 15 hours prior to the start of the RPM experiment at 8000/cm^2. At 15 hours some samples were incubated with 5 mM CaCl2 for 10 min, washed twice with PBS, given aged matched GM and placed onto the RPM. Other samples were exposed to PEMF at 37° C. (0.5 or 1.5 mT) for 10 min before being placed onto the RPM. Samples were fixed after 2 hours for subsequent cell cycle analysis as described below.
Following RPM treatment (above) cells were fixed and stored at −20° C. in 70% ice-cold ethanol for 12 to 18 hours prior to staining. Cell cycle was analyzed based on DNA content using a propidium iodide (PI)/RNase staining kit (BD Biosciences, cat#550825) by FACS.

TRPC1 channel = target: T1, TRPC1 channel (Homo sapiens, UniProt P48995); test: Oxygen consumption rate (OCR) of myoblasts in response to PEMF; type: cell-based; conditions: oxygen consumption measured 6 hours after PEMF
T1 construct: PEMF-induced TRPC1-mediated calcium entry in myoblasts increases oxygen consumption rate (OCR); endogenous in cells
T1 sequence (P48995 whole entry): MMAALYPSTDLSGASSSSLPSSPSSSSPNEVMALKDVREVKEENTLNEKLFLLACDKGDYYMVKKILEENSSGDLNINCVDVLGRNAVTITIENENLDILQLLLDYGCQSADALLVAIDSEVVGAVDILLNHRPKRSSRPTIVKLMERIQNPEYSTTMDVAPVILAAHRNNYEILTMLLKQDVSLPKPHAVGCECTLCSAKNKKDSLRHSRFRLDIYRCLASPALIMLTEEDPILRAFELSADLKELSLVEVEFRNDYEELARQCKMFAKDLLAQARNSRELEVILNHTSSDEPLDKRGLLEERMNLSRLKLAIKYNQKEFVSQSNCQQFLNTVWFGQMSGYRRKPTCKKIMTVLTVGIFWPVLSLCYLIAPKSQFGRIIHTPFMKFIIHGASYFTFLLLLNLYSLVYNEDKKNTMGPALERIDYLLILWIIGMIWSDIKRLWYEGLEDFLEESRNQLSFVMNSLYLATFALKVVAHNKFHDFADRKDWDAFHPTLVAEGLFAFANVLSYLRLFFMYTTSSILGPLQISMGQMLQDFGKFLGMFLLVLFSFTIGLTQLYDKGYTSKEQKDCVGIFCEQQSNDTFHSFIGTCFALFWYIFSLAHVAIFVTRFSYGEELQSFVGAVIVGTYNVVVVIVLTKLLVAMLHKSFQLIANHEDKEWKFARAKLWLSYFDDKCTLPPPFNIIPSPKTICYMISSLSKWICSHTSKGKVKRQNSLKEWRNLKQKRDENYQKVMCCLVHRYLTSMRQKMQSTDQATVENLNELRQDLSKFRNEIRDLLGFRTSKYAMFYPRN
Protocol: Muscle gene expression enhanced by PEMF treatment as indicated. […] The principal functions of these genes are shown in the parentheses. […] A) Human myoblast measurement showing increased OCR six hours following exposure to 1.5 mT PEMFs for 10 minutes. B) The production of reactive oxygen species (ROS) also increases 15 minutes after PEMF (1.5 mT) exposure.
C) Oxygen consumption rate (OCR) in response to PEMF stimulation obeys the same EMF efficacy window as proliferation. […] Cells were exposed to PEMFs and oxygen consumption measured 6 hours later. These cellular responses obey a mitohormeitic EMF efficacy window particular for skeletal muscle.

C2C12 myoblasts [4] = test: Myogenic differentiation (myotube area) of C2C12 myoblasts after PEMF; type: cell-based, mouse; conditions: 100 μM co-administered; 1 mT PEMFs, early application
Protocol: Series of 4 images with 20× magnification were taken for each sample and myotube area was calculated by manually delimiting the myotube periphery using ImageJ (Cell Counter plugin).
as §1

[5] = extracellular magnesium raised to 10 mM, plate reading

Molecule: NCCOB(c1ccccc1)c1ccccc1 [2-APB, 2-Aminoethyl diphenylborinate]
- [Ca^2+]i / cytosolic calcium level (C2C12 myoblasts [1]; 10 μM, unstimulated (0 mT) and stimulated (1 mT) myoblasts): reduced the cytosolic calcium levels to a common baseline; also recorded: reduced [Ca^2+]i to a common baseline
- PEMF-provoked calcium increments (C2C12 myoblasts [1]; antagonizing TRPM7/C1 channels, 1 mT PEMFs): precluded the ability of PEMFs to provoke calcium increments
- PEMF-induced proliferation (C2C12 myoblasts [2]): abolished the ability of PEMFs to enhance proliferation

Molecule: [Ca+2].[Cl-].[Cl-] [CaCl2]
- Reversal of G2/M accumulation from simulated microgravity (C2C12 myoblasts [3]): mimic the effects of 1.5 mT PEMFs

Molecule: COc1ccc(CCCOC(Cn2ccnc2)c2ccc(OC)cc2)cc1 (centres unmarked) [SKF-96365]
- OCR in response to PEMF exposure (TRPC1 channel): blocks OCR in response to PEMF exposure

Molecule: COc1cc(CNC(=O)CCCC/C=C/C(C)C)ccc1O [capsaicin]
- capsaicin calcium response versus response to PEMFs (C2C12 myoblasts [1]; 1 mT PEMFs): inversely related to response to 1 mT PEMFs

Molecule: C[C@H](CCC(=O)O)C[C@H](C)C[C@H](C)C(=O)/C=C(\O)[C@H](C)C[C@H](C)C/C=C/[C@@H](C)[C@@H](O)[C@@H](C)[C@@H](O)C[C@@H]1CC[C@@](C)([C@H]2CC[C@@](C)([C@@H](C)O)O2)O1 [ionomycin]
- [Ca^2+]i increase relative to unexposed cells (C2C12 myoblasts [1]; 1 μM, 30 min, compared with 1 mT PEMFs for 10 min, listed as lonomycin): comparable magnitude
- [Ca^2+]i (C2C12 myoblasts [1]; 1 μM, five-hour application): produced lethal [Ca^2+]i

Molecule: [Mg+2] [magnesium]
- PEMF-induced rise of intracellular calcium (C2C12 myoblasts [1]; [5]): did not prevent PEMFs from raising intracellular calcium; also recorded: does not prevent PEMFs from raising intracellular calcium
- basal and PEMF-induced calcium levels (C2C12 myoblasts [1]; [5]): augmented both basal and PEMF-induced calcium levels

Molecule: neomycin
- PEMF enhancement of myotube size (mean myotube area) (C2C12 myoblasts [4]): prevented

Source: patent publication US10898708B2, “System and method for applying pulsed electromagnetic fields” (National University of Singapore, priority 2015, dated 2021)
